Test results reported in publication PMC9050674, “Structure-based inhibitor design for reshaping bacterial morphology” (Communications Biology, 2022).
“And” between values parts separate entries of the source, which are not always exact repeats. Equal entries are not always repeated.

Experiments:
[1] = system: C. jejuni ATCC 33560 WT; type: cell-based, Campylobacter jejuni
Experimental: Invasion assay was performed as described previously with modifications. Briefly, prior to bacterial infection, a monolayer of 1 × 10^5 Caco-2 cells was prepared in a 24-well tissue culture plate and incubated in DMEM with 10% FBS, and 0.6% CMC at 37 °C under 5% CO2. The cultures of wild-type C. jejuni strain with or without BMK-S301 (100 μM) and KL-L9P (1 μM) were prepared, as described above (TEM). The bacterial suspensions were diluted in DMEM with 10% FBS and 0.6% CMC, and then added onto the cell monolayer at a multiplicity of infection (MOI) of 100. After a 3 h incubation, the cells were incubated with 250 μg/mL of gentamicin in the fresh pre-warmed medium for 2 h to kill any extracellular bacteria. The wells were washed three times with 1 × PBS, and treated with 0.1% Triton X-100 in 1 × PBS for 15 min. After dilution with 1 × PBS, the suspensions were plated on MH agar to enumerate the CFU. […]

[2] = target: Pgp3 WT (Campylobacter jejuni, UniProt Q0P921); experiment: Isothermal-titration calorimetry (ITC) with Pgp3 WT; type: binding, C. jejuni
Sequence of Pgp3 WT (Q0P921 entry or part of it): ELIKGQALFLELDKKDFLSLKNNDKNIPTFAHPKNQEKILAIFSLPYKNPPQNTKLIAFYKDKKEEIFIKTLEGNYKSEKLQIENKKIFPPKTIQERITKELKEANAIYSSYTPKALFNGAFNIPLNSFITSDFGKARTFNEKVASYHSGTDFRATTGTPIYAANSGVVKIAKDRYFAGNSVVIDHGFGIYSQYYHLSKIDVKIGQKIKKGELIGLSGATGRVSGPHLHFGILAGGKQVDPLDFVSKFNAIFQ
Experimental: The gene encoding the amino-acid sequence of Glu21–Gln273 of Pgp3 from C. jejuni (strain ATCC 33560) was cloned into the expression vector pET-21a (Novagen) producing the recombinant wild-type Pgp3 protein with the C-terminal His6-tag ([…]). The protein expression and purification were conducted according to previously described methods with exception. The HiTrap chelating HP (GE Healthcare) column was washed with the lysis buffer containing 60 mM imidazole and the protein was eluted with a linear gradient from 100 to 500 mM imidazole. The protein was further purified by gel filtration on a HiLoad 16/60 Superdex 200 prep-grade column (GE Healthcare), which was previously equilibrated with 20 mM Tris-HCl pH 8.0 and 200 mM NaCl. The fractions containing the Pgp3 protein were pooled and concentrated to 15 mg mL^−1 for crystallization. The variants of Pgp3 (S169A, R195A, H216A, and H247A) were generated by site-directed mutagenesis using primer sets in Supplementary Table 1 and were purified as described for the WT Pgp3.
Using a micro-syringe, 2.5 μL of each inhibitor (2.25 mM) was added at intervals of 200 s to the Pgp3 solution in the cell with gentle stirring (125 rpm). The same ITC condition was applied to evaluate the KD values of BMK-S101 for each Pgp3 variant. All data were fitted to the single-binding-site model. Fitted curves were generated using GraphPad Prism 7. Data are mean ± SEM from triplicate experiments and the ITC thermograms are representative of triplicate experiments.

CC(=O)N[C@@H](Cc1ccc(S(N)(=O)=O)cc1)C(=O)N[C@H](C)C(=O)NO [BMK-S301]
invasion ability of WT C. jejuni ([1]; 100 μM BMK-S301 and 1 μM KL-L9P, high-viscosity medium, 3 h after infection): decreased compared to that of the untreated C. jejuni
Invasion assay (intracellular bacteria, relative) ([1]; BMK-S0301 100 μM with MAP 1 μM, single replicates, source data Fig. 5d): 90.1581 and 72.6517 and 79.6542 and 66.8677 and 113.675 and 78.0123 and 88.3559 and 93.1319 and 83.5799
Kd [2]: 3.5 ± 0.2 µM
